Results reported in patent publication US20040235723A1, “Method of screening abc protein promoter/inhibitor” (priority 2001, published 2004).
Read-outs that look alike come from different tables or passages of the source.

Tests used:
[1] = tested on: KHW3 + pYI-PDR5; test: MIC on SD-uracil agar medium, KHW3 + pYI-PDR5; type: cell-based; details: Saccharomyces cerevisiae, 48 h
Method: (§1) A double gene disruption strain KHW2 deficient in PDR5 (Δsyr1/erg3::HIS Δpdr5::LEU2), a double gene disruption strain KHW4 deficient in SNQ2 which is another drug-discharging ABC transporter of yeast (Δpdr5::LEU2 Δsnq2::HIS3) and a triple gene disruption strain […] deficient in PDR5 and SNQ2 (Δsyr1/erg3::HIS3 Δpdr5::LEU2 Δsnq2::HIS3) were prepared from an SYR1/ERG3 gene disruption strain KHW1 of Saccharomyces cerevisiae W303-1A (wild type) (Δsyr1/erg3::HIS3). Preparation of multiple gene disruption strains was carried out in such a manner that a host strain was transformed by a plasmid for disruption of gene where LEU2 gene or […] gene was a marker and the disrupted strain where each drug-resistant gene was disrupted by insertion of LEU2 or HIS3 gene was selected using recovery of requirement of leucine or histidine as an index. Each of the multiple gene disruption strains was confirmed by an increase in sensitivity to cycloheximide and cerulenin while gene disruption of PDR5 and SNQ2 was confirmed by a southern hybridization.

[2] = tested on: KHW4 + pYI-PDR5; test: MIC on SD-uracil agar medium, KHW4 + pYI-PDR5; type: cell-based; details: Saccharomyces cerevisiae, 48 h
Method: as §1

[3] = tested on: KHW3 + pYI; test: MIC on SD-uracil agar medium, triple gene disruption strain KHW3 + pYI; type: cell-based, Saccharomyces cerevisiae; details: for MIC: Saccharomyces cerevisiae, 48 h; for Increase of sensitivity of triple gene disruption strain KHW3 compared with wild strain: ratio of MIC values
Method: as §1

[4] = tested on: KHW1 + pYI; test: MIC on SD-uracil agar medium, SYR1 gene disruption strain KHW1 + pYI; type: cell-based, Saccharomyces cerevisiae; details: for MIC: Saccharomyces cerevisiae, 48 h; for Increase of sensitivity of SYR1 gene disruption strain (KHW1+pYI) compared with wild strain (W303-1A+pYI): ratio of MIC values
Method: as §1

[5] = molecular target: T1, PDR5 transporter (Saccharomyces cerevisiae, UniProt P33302); test: Agar well diffusion growth inhibition assay for PDR5 transporter inhibition, KHW3+pYI-PDR5; type: cell-based; details: cycloheximide 0.04 μg/ml or cerulenin 0.4 μg/ml, without FK 506
T1 construct: expressed in transfected cells; host or cells: Saccharomyces cerevisiae KHW3 (Δsyr1/erg3::HIS3 Δpdr5::LEU2 Δsnq2::HIS3) carrying plasmid pYI-PDR5
T1 sequence (P33302 whole entry, the tested form may be a part): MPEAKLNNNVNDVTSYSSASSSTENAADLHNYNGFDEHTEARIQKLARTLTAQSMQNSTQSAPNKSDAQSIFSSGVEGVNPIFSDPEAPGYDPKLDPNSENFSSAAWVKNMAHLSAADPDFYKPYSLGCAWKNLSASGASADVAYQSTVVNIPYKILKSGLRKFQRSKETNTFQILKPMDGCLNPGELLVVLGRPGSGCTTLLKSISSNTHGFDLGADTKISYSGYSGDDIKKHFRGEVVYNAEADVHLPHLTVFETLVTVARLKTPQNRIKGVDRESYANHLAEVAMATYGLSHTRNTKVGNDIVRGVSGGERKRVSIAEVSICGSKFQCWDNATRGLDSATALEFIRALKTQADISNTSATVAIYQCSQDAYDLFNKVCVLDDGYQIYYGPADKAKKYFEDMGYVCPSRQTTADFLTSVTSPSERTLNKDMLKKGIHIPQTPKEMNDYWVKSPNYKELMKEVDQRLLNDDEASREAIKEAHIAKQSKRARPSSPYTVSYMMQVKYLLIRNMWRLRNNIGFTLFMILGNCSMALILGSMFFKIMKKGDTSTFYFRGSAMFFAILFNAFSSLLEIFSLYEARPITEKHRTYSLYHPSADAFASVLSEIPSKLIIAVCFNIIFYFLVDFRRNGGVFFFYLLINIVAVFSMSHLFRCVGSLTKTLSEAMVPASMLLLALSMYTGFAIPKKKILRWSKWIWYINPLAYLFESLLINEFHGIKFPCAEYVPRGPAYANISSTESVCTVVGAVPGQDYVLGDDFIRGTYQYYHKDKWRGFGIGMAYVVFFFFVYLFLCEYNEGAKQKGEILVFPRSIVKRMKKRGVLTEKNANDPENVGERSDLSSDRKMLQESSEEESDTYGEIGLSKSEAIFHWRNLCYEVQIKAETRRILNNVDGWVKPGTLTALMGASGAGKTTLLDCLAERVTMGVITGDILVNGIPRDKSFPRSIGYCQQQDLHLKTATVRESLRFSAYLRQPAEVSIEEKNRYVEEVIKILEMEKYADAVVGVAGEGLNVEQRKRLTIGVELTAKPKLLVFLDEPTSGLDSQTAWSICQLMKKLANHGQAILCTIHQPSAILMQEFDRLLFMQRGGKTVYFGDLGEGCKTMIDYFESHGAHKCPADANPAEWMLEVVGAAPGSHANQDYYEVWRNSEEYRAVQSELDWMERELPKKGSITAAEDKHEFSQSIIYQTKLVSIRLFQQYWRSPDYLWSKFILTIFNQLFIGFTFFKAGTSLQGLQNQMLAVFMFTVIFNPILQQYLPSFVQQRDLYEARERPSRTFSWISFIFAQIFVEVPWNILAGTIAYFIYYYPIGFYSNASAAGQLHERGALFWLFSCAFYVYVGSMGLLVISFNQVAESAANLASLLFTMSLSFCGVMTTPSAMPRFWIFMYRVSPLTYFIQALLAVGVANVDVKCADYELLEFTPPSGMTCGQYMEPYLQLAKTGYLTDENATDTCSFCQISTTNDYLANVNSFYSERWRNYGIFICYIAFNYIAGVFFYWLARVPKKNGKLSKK
Method: (§2) Yeast cells grown on an SD-uracil medium were suspended in a soft agar dissolved in 4 ml at 50° C. so as to make 1×10^5 cells/ml, mixed after addition of a drug such as cycloheximide or cerulenin if necessary and layered on an SD-uracil medium containing the drug of the same concentration. After the soft agar was solidified, a pore of 8 mm diameter was formed on a part of the soft agar and 50 μl of the test substance were poured thereinto. The plate was incubated at 32° C. for 48 hours and […] of growth inhibition ring around the well was measured whereupon activity of the test substance for inhibiting the discharge of cycloheximide and cerulenin by the PDR transporter was evaluated.
(§3) Unit for the growth inhibition activity was defined as follows. Thus, when a triple gene disruption strain KHW3 (Δsyr1/erg3::HIS3 Δpdr5::LEU2 Δsnq2::HIS3) was used and diameter of the inhibition ring measured by the above agar well diffusion method was plotted to logarithm of cycloheximide concentration where cycloheximide of 8-200 μg/ml was used as a standard substance, it was noted there was a linear relation as shown in FIG. 1. Growth inhibition activity showing an inhibition ring of 20 mm to KHW3 containing pYI was defined as 20 inhibition units per ml (IU/ml) and, using the above-mentioned standard curve of cycloheximide, inhibition units of test substances were calculated. […]

[6] = tested on: KHW4 + pYI; test: MIC on SD-uracil agar medium, KHW4 + pYI; type: cell-based; details: Saccharomyces cerevisiae, 48 h
Method: as §1

[7] = tested on: W303-1A + pYI; test: MIC on SD-uracil agar medium, wild strain W303-1A + pYI; type: cell-based; details: Saccharomyces cerevisiae, 48 h
[8] = tested on: KHW3+pYI; test: Agar well diffusion growth inhibition assay, cytotoxicity check on KHW3+pYI; type: cell-based, Saccharomyces cerevisiae; details: FK 506 solution 12.5 μg/ml, 50 μl per well; 32° C., 48 hours; no drug in medium
Method: as §2, §3

C/C=C/C/C=C/CCC(=O)[C@H]1O[C@H]1C(N)=O [Cerulenin, cerulenin]
MIC ([1]; KHW3 + pYI-PDR5, 32° C., two days, read-out: MIC): 0.8 µg/mL | MIC [2]: 0.6 µg/mL | MIC ([3]; KHW3 + pYI, 32° C., two days, read-out: MIC): 0.2 µg/mL | Increase of sensitivity of triple gene disruption strain KHW3 compared with wild strain [3]: 4 fold | MIC ([4]; KHW1 + pYI, 32° C., two days, read-out: MIC): 0.4 µg/mL | Increase of sensitivity of SYR1 gene disruption strain (KHW1+pYI) compared with wild strain (W303-1A+pYI) [4]: 2 fold | Growth inhibition of KHW3+pYI-PDR5 by sole drug in medium [5]: not inhibited | MIC ([6]; KHW4 + pYI, 32° C., two days, read-out: MIC): 0.4 µg/mL | MIC ([7]; W303-1A + pYI (wild strain), 32° C., two days, read-out: MIC): 0.8 µg/mL

C[C@@H]1C[C@@H]([C@H](O)CC2CC(=O)NC(=O)C2)C(=O)[C@@H](C)C1 [Cycloheximide, cycloheximide]
MIC [1]: 0.16 µg/mL | MIC [2]: > 0.32 µg/mL | MIC [3]: 0.01 µg/mL | Increase of sensitivity of triple gene disruption strain KHW3 compared with wild strain [3]: 16 fold | MIC [4]: 0.04 µg/mL | Increase of sensitivity of SYR1 gene disruption strain (KHW1+pYI) compared with wild strain (W303-1A+pYI) [4]: 4 fold | Growth inhibition of KHW3+pYI-PDR5 by sole drug in medium [5]: not inhibited | MIC [6]: 0.02 µg/mL | MIC [7]: 0.16 µg/mL

C=CC[C@@H]1/C=C(\C)C[C@H](C)C[C@H](OC)[C@H]2O[C@@](O)(C(=O)C(=O)N3CCCC[C@H]3C(=O)O[C@H](/C(C)=C/[C@@H]3CC[C@@H](O)[C@H](OC)C3)[C@H](C)[C@@H](O)CC1=O)[C@H](C)C[C@@H]2OC [FK 506]
Growth inhibition of KHW3+pYI by test substance alone (cytotoxicity) [8]: did not inhibit the growth of KHW3+pYI
